In brackets after ≈: the same amount, converted by molar mass. Several values for one entry are separate records, joined by “and”; a condition that tells them apart may be missing. Equal values may be shown once.

For series [1] the following is noted: from C=CCC[C@@H](NC(=O)[C@@H]1[C@@H]2OCC[C@@H](CC(C)C)C[C@H]2CN1C(=O)OC(C)(C)C)[C@H]1O[C@H](SCC=C)[C@H](O)[C@@H](O)[C@H]1O; rcm bond; 10-membered ring; Grubbs II (20 mol%)/benzoquinone; then HCl/MeOH; toluene; 0.2 mM; 0.33 h; 3 steps.
Series [2] relates to P. aeruginosa ATCC 27853 (HAV#009). Put plainly: MIC by broth microdilution (CLSI), Chelex 100-treated broth. Type of series: cell-based. The following applies: Pseudomonas aeruginosa, ATCC27853; HAV#009, ATCC 27853; CaMHB pre-treated with Chelex 100 ion exchange resin, 24 h. Here is the method:
Minimum inhibitory concentrations (MICs) were determined by the broth microdilution method following the Clinical and Laboratory Standards Institute (CLSI) guidelines. Test organisms consisted of standard reference strains from the American Type Culture Collection (ATCC; Manassa, VA, USA) and clinical isolates obtained from JMI Laboratories Inc. (North Liberty, IA, USA), Micromyx repository (MMX; Kalamazoo, MI, USA), and Massachusetts Eye and Ear Hospital (Boston, USA). Before the start of the MIC experiment, standard and test compound stock solutions were prepared in dimethyl sulfoxide (DMSO, Aldrich D2650) at a stock concentration of 2,560 μg/mL. The compound concentration range typically employed for each experiment was 64-0.06 μg/mL (2.5% final DMSO concentration). Iboxamycin was used as a comparator in all experiments. All bacterial strains were sub-cultured on blood agar plates (tryptic soy agar with 5% sheep blood, Hardy Diagnostics) and incubated overnight at 35° C. Organisms were suspended in cation-adjusted Mueller-Hinton broth (CaMHB, BD 212322) and optical density was adjusted to 0.5 McFarland standard. Suspensions were further diluted to obtain a final inoculum of 5×10^5 CFU/mL for broth microdilution experiments. The minimum concentration of compound required to inhibit visible bacterial growth after 24 h of incubation was recorded as the MIC in μg/mL. MICs for P. aeruginosa were recorded in cation-adjusted Mueller-Hinton broth which had been pre-treated with Chelex 100 ion exchange resin according to procedures reported in Ito et al. Antimicrob Agents Chemother (2016) 60 (12), 7396-7401.

For the next series, the system named is S. aureus MMX 3035. Put plainly: MIC by broth microdilution (CLSI). The class given is cell-based. The following applies: Staphylococcus aureus, MMX3035, 24 h, MMX 3035; CaMHB, 24 h incubation; read-out: MIC S. aureus MMX 3035. An outline of the steps:
(§1)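 Lowest concentration (μg/mL) without visible bacterial growth after 24 h was taken as MIC, using CLSI microdilution at 5×10^5 CFU/mL in CaMHB. Chelex 100 treatment of the broth applied only to P. aeruginosa.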

For series [3], the system named is S. aureus ATCC 29213 (HAV#001). Put plainly: MIC by broth microdilution (CLSI). Type of series: cell-based. The note with it: Staphylococcus aureus, ATCC29213, 24 h, HAV#001, ATCC 29213; CaMHB, 24 h incubation; read-out: MIC S. aureus ATCC 29213. An outline of the steps:
as §1
In general terms: Broth dilution looks for growth in wells or tubes with falling amounts of substance.

The subject of another series is E. coli lptD mutant. Put plainly: MIC by broth microdilution (CLSI). The class given is cell-based. The note with it: Escherichia coli, 24 h, read-out: MIC E. coli lptD mutant, lptD mutant / ΔlptD mutant; CaMHB, 24 h incubation. An outline of the steps:
as §1

Another series concerns E. faecium JMI-990536. Put plainly: MIC by broth microdilution (CLSI). Type of series: cell-based. The note with it: Enterococcus faecium, JMI990536, 24 h, JMI-990536; CaMHB, 24 h incubation; read-out: MIC E. faecium JMI-990536. An outline of the steps:
as §1

The test system of series [4] is E. coli ATCC 25922 (HAV#006). Put plainly: MIC by broth microdilution (CLSI). Type of series: cell-based. The note with it: Escherichia coli, ATCC25922, 24 h, HAV#006, ATCC 25922; CaMHB, 24 h incubation; read-out: MIC E. coli ATCC 25922. An outline of the steps:
as §1

The test system of the next series is S. pneumoniae c-ermB. Put plainly: MIC by broth microdilution (CLSI). The note with it: Streptococcus pneumoniae, 24 h, read-out: MIC S. pneumoniae c-ermB. Type of series: cell-based. In short, it runs like this:
as §1

For a further series, the system named is H. influenzae ATCC 49247. Put plainly: MIC by broth microdilution (CLSI). The class given is cell-based. The following applies: Haemophilus influenzae, ATCC49247; ATCC 49247; 24 h incubation; read-out: MIC H. influenzae ATCC 49247. In short, it runs like this:
as §1

In series [5] the test system is M. catarrhalis ATCC 25238. Put plainly: MIC by broth microdilution (CLSI). The class given is cell-based. The following applies: Moraxella catarrhalis, ATCC25238, 24 h incubation. In short, it runs like this:
as §1

The next series relates to S. aureus Clinical (cfr). Put plainly: MIC by broth microdilution (CLSI). The class given is cell-based. The following applies: Staphylococcus aureus, 24 h, Clinical (cfr); CaMHB, 24 h incubation; read-out: MIC S. aureus Clinical (cfr). An outline of the steps: as §1
Series [6] relates to E. faecalis ATCC 29212 (HAV#005). Put plainly: MIC by broth microdilution (CLSI). Type of series: cell-based. The note with it: Enterococcus faecalis, ATCC29212, 24 h, HAV#005, ATCC 29212; CaMHB, 24 h incubation; read-out: MIC E. faecalis ATCC 29212. An outline of the steps: as §1
A further series relates to K. pneumoniae JMI-991193. Put plainly: MIC by broth microdilution (CLSI). Type of series: cell-based. The following applies: Klebsiella pneumoniae, JMI991193, 24 h, JMI-991193; CaMHB, 24 h incubation; read-out: MIC K. pneumoniae JMI-991193. In short, it runs like this:
as §1

Consider `CC(C)C[C@@H]1CCO[C@@H]2[C@@H](C1)CN(C(=O)OC(C)(C)C)[C@@H]2C(=O)N[C@@H]1CCC=CCS[C@H]2O[C@H]1[C@H](O)[C@H](O)[C@H]2O`, for which the ring closure, yield after HPLC in series [1] was 1.3% and 1.7%.
On to `CC(C)C[C@@H]1CCO[C@@H]2[C@H](CN[C@@H]2C(=O)N[C@H]2[C@H]3O[C@H](SCCCC/C=C/[C@@H]2C)[C@H](O)[C@@H](O)[C@H]3O)C1` [FSA1610014, (4S,5aS,8S,8aR)-4-isobutyl-N-((1R,9S,10R,11R,12R,13S,14R,E)-12,13,14-trihydroxy-9-methyl-15-oxa-2-thiabicyclo[9.3.1]pentadec-7-en-10-yl) octahydro-2H-oxepino[2,3-c]pyrrole-8-carboxamide], for which the MIC in series [2] is 32 µg/mL (≈ 60.8 µM); in the series on S. aureus MMX 3035 it was 32 µg/mL (≈ 60.8 µM); in [3] it was 0.5 µg/mL (≈ 0.949 µM); in the series with E. coli lptD mutant, 16 µg/mL (≈ 30.4 µM); in the series with E. faecium JMI-990536, 32 µg/mL (≈ 60.8 µM); in [4] it was over 32 µg/mL. For the same molecule, the MIC with S. pneumoniae c-ermB was 16 µg/mL (≈ 30.4 µM); in the series on H. influenzae ATCC 49247 it was 0.25 µg/mL (≈ 0.475 µM); in series [5], 16 µg/mL (≈ 30.4 µM); in the series with S. aureus Clinical (cfr), 32 µg/mL (≈ 60.8 µM); in [6], 2 µg/mL (≈ 3.8 µM); in the series on K. pneumoniae JMI-991193 it was over 32 µg/mL.
With `CC(C)C[C@@H]1CCO[C@@H]2[C@H](CN[C@@H]2C(=O)N[C@H]2[C@H]3O[C@H](SCCCC/C=C\[C@H]2C)[C@H](O)[C@@H](O)[C@H]3O)C1` [FSA1610015, (4S,5aS,8S,8aR)-4-isobutyl-N-((1R,9R,10R,11R,12R,13S,14R,Z)-12,13,14-trihydroxy-9-methyl-15-oxa-2-thiabicyclo[9.3.1]pentadec-7-en-10-yl) octahydro-2H-oxepino[2,3-c]pyrrole-8-carboxamide], the MIC came to 4 µg/mL (≈ 7.59 µM) in series [2]; 8 µg/mL (≈ 15.2 µM) in the series on S. aureus MMX 3035; 0.125 µg/mL (≈ 0.237 µM) in series [3]; 1 µg/mL (≈ 1.9 µM) in the series with E. coli lptD mutant; 1 µg/mL (≈ 1.9 µM) with E. faecium JMI-990536; 8 µg/mL (≈ 15.2 µM) in series [4]. Also, the MIC with S. pneumoniae c-ermB is 4 µg/mL (≈ 7.59 µM); with H. influenzae ATCC 49247, at most 0.06 µg/mL; in [5], 1 µg/mL (≈ 1.9 µM); with S. aureus Clinical (cfr), 2 µg/mL (≈ 3.8 µM); in [6] it was 0.25 µg/mL (≈ 0.475 µM); in the series with K. pneumoniae JMI-991193, 32 µg/mL (≈ 60.8 µM).
In the case of `CC(C)C[C@@H]1CCO[C@@H]2[C@H](CN[C@@H]2C(=O)N[C@H]2[C@H]3O[C@H](SCCCC/C=C/[C@H]2C)[C@H](O)[C@@H](O)[C@H]3O)C1` [FSA1610016, (4S,5aS,8S,8aR)-4-isobutyl-N-((1R,9R,10R,11R,12R,13S,14R,E)-12,13,14-trihydroxy-9-methyl-15-oxa-2-thiabicyclo[9.3.1]pentadec-7-en-10-yl) octahydro-2H-oxepino[2,3-c]pyrrole-8-carboxamide], the MIC in series [2] was 4 µg/mL (≈ 7.59 µM); in the series with S. aureus MMX 3035 it was 16 µg/mL (≈ 30.4 µM); in [3], 0.125 µg/mL (≈ 0.237 µM); in the series with E. coli lptD mutant, 2 µg/mL (≈ 3.8 µM); in the series on E. faecium JMI-990536 it was 4 µg/mL (≈ 7.59 µM); in series [4] it was 16 µg/mL (≈ 30.4 µM). For the same molecule, the MIC with S. pneumoniae c-ermB was 8 µg/mL (≈ 15.2 µM); in the series on H. influenzae ATCC 49247 it was at most 0.06 µg/mL; in series [5], 2 µg/mL (≈ 3.8 µM); in the series with S. aureus Clinical (cfr), 16 µg/mL (≈ 30.4 µM); in series [6], 0.25 µg/mL (≈ 0.475 µM); with K. pneumoniae JMI-991193, 32 µg/mL (≈ 60.8 µM).

The values are drawn from patent US20250270246A1, “LINCOSAMIDES AND USES THEREOF” (President and Fellows of Harvard College, priority 2022, published 2025).
